Test results from patent US20210276971A1, “TRIAZAMACROCYCLE-DERIVED CHELATOR COMPOSITIONS FOR COORDINATION OF IMAGING AND THERAPY METAL IONS AND METHODS OF USING SAME” (The Research Foundation for The State University of New York, priority 2018, published 2021).

What was measured:
[1] = Plasma stability of ^44Sc complexes (37° C.); format: in vitro ADME, Rat; conditions: for % complex stability: Rat Plasma, 37°
[2] = EDTA challenge of ^44Sc complexes (10× excess EDTA, 37° C.); format: physicochemical; conditions: for % complex stability: EDTA, 10× eq, 37° C.; for kinetic inertness (transchelation): presence of 10×EDTA
Procedure: Challenge experiments. To measure relative complex stability, 10 uL of ligand solution at 100000 ng/mL was added to 100 uL EDTA to produce 10× excess EDTA. Mixtures were incubated at 37° C. for 1 h. To evaluate plasma stability, 10 uL of ligand solution at 100000 ng/mL added to 50 uL mouse plasma. Incubated at 37° C. for 1 h. Tubes were intermittently vortexed and 2 uL was removed at the designated timepoints and spotted onto TLC plates.

[3] = HPLC check of interconversion of metal-complex diastereomers; format: physicochemical; conditions: HPLC-separated peaks of Sc(III)/Lu(III) complexes, reinjected
Procedure: FIG. 13: Sc-Overlay and Lu-Overlay—A stock solution of PICAGA (2 mg/mL) in DI water was prepared. 1.1 equivalents of metal added to the ligand. ScCl3.6H2O or Lu(ClO4)3.6H2O. pH was adjusted to 6-7 with 5 M NaOH. Complex solutions were injected on HPLC. Each peak associated with the PICAGA (5.7 and 5.9 min) was collected and reinjected at 20 min.
A direct DO3A-monoamide DUPA conjugate analogue was also synthesized. The fully assembled conjugates DOTA-DUPA and picaga-DUPA were fully deprotected and characterized using ^1H-, ^13C-NMR and mass spectrometry. Following complete characterization, the non-radioactive scandium complexes were formed and characterized using HPLC-analysis. As the glutarate arm is introduced as the pure S-entantiomer, where the alpha carbon retains the chiral alpha carbon and subsequently introduces chirality to the ligand.

O=C(O)CN1CCN(Cc2cccc(C(=O)O)n2)CCN(Cc2cccc(C(=O)O)n2)CC1 [NO1A2PIC]
% complex stability ([1]; t = 10 min): 98.9 ± 0.3%
% complex stability ([1]; t = 30 min): 98.3 ± 0.1%
% complex stability ([1]; t = 60 min): 97.4 ± 0.4%
% complex stability ([2]; t = 0): 90.2%
% complex stability ([2]; t = 10 min): 77.4 ± 5.2%
% complex stability ([2]; t = 30 min): 67.8 ± 0.9%
% complex stability ([2]; t = 60 min): 51.5 ± 0.4%
kinetic inertness (transchelation) [2]: diminished complex inertness

O=C(O)CN1CCN(CC(=O)O)CCN(Cc2cccc(C(=O)O)n2)CC1 [MONOPIC, 6-{[4,7-Bis(carboxymethyl)-1,4,7-triazonan-1-yl]methyl}-2-pyridinecarboxylic acid]
% complex stability ([1]; t = 10 min): 90.1 ± 0.8%
% complex stability ([1]; t = 30 min): 91.0 ± 0.2%
% complex stability ([1]; t = 60 min): 91.6 ± 0.3%
kinetic inertness (transchelation) ([1]; rat plasma): no detectable transchelation
% complex stability ([2]; t = 0): 91.4%
% complex stability ([2]; t = 10 min): 91.5 ± 0.8%
% complex stability ([2]; t = 30 min): 91.4 ± 0.8%
% complex stability ([2]; t = 60 min): 90.5 ± 0.6%
kinetic inertness (transchelation) [2]: no detectable transchelation

O=C(O)CC[C@H](NC(=O)N[C@@H](CCC(=O)NCCCCCNC(=O)CCC(C(=O)O)N1CCN(CC(=O)O)CCN(Cc2cccc(C(=O)O)n2)CC1)C(=O)O)C(=O)O (stereo in doubt) [PICAGA, 2-{3-[(R)-1-Carboxy-4-[5-(4-carboxy-4-{7-(carboxymethyl)-4-[(6-carboxy-2-pyridyl)methyl]-1,4,7-triazonan-1-yl}butyrylamino)pentylamino]-4-oxobutyl]ureido}glutaric acid]
interconversion of complex diastereomers [3]: limited interconversion
interconversion of complex diastereomers ([3]; listed as picaga-DUPA): do not interconvert even after 12 hours

O=C(O)CN1CCN(CC(=O)O)CCN(CC(=O)O)CCN(CC(=O)O)CC1 [DOTA, reference compound]
% complex stability ([1]; t = 10 min): 74.8 ± 1.8%
% complex stability ([1]; t = 30 min): 74.4 ± 0.7%
% complex stability ([1]; t = 60 min): 75.5 ± 0.9%
% complex stability ([2]; t = 0): 9.41%
% complex stability ([2]; t = 10 min): 74.4 ± 0.4%
% complex stability ([2]; t = 30 min): 73.3 ± 0.5%
% complex stability ([2]; t = 60 min): 74.7 ± 0.4%
